{"source": "patent US6579556B2", "about": "“Ambient stable beverage” (Lipton, division of Conopco, Inc., priority 2000, dated 2003)", "format_in_all_cases": "cell-based", "key": {"[1]": {"test_system": "yeast Saccharomyces cerevisiae X2180-1B", "assay": "Fungicidal activity / MIC at 50° C. versus 30° C., yeast survival in YEPD broth pH 3.4", "procedure": "In the table the minimum inhibitory concentration (MIC) is given for each compound as well as the molecular weight (M.W.), the logPoct and a rating of its importance. […] The logPoct, that is the logarithm of the partition coefficient of the relevant compound in octanol and thus a measure of its […], was determined using […]™ software from the CHEMOFFICE ULRA ENHANCED 2000™ software package (version 5.5) that is commercially available from CambridgeSoft.\n(§1) YEPD contained glucose, 20 g/l, peptone 20 g/l and yeast extract 10 g/l. Rows of 30 ml tubes containing 10 ml YEPD, pH 3.4, were equilibrated at the required temperature for 7 minutes in a water bath, before inoculation with 10^4 cells/ml of the yeast Saccharomyces cerevisiae X2180-1B. Tubes were held at temperature for 10 minutes before being cooled rapidly in cold water for 5 minutes. Tubes were then incubated for 48 hours at 25° C. to allow surviving yeasts to grow out, and form discrete colonies.\nas §1, §1, §1"}, "[2]": {"test_system": "bacteria, Gluconobacter sp. 222", "assay": "Bacteria experiments, growth after heat + pasteurisation adjunct", "conditions": "0-100 ppm, growth measured visually at 14 days", "procedure": "Rows of 30 ml tubes containing 10 ml soft drink, pH 3.4, were equilibrated at the required temperature for 7 minutes in a water bath, before inoculation with 10^4 cells/ml of the bacteria, Gluconobacter sp. 222. Tubes were held at temperature for 2 minutes before being cooled rapidly in cold water for 5 minutes. Tubes were then incubated for 14 days at 25° C. to allow surviving bacteria to grow out. At 14 days growth was measured visually."}, "[3]": {"test_system": "yeast Saccharomyces cerevisiae X2180-1B", "assay": "Ready to Drink tea experiments, yeast growth after heat + pasteurisation adjunct", "conditions": "0-200 ppm, OD 600 nm at 14 days", "procedure": "Rows of 30 ml tubes containing 10 ml RTD tea, pH 3.4, were equilibrated at the required temperature for 7 minutes in a water bath, before inoculation with 10^4 cells/ml of the yeast Saccharomyces cerevisiae […]-1B. Tubes were held at temperature for 2 minutes before being cooled rapidly in cold water for 5 minutes. Tubes were then incubated for 14 days at 25° C. to allow surviving yeasts to grow out. At 14 days growth was measured by optical density at 600 nm in x11 diluted samples. […] Rows of 30 ml tubes containing 10 ml RTD tea, pH 3.4, were equilibrated at the required temperature for 7 minutes in a water bath, before inoculation with 10^4 cells/ml of the yeast Saccharomyces cerevisiae […]-1B. Tubes were held at temperature for 2 minutes before being cooled rapidly in cold water for 5 minutes. Tubes were then incubated for 14 days at 25° C. to allow surviving yeasts to grow out. At 14 days growth was measured by optical density at 600 nm in x11 diluted samples. […] Rows of 30 ml tubes containing 10 ml RTD tea, pH 3.4, were equilibrated at the required temperature for 7 minutes in a water bath, before inoculation with 10^4 cells/ml of the yeast Saccharomyces cerevisiae […]-1B. Tubes were held at temperature for 2 minutes before being cooled rapidly in cold water for 5 minutes. Tubes were then incubated for 14 days at 25° C. to allow surviving yeasts to grow out. At 14 days growth was measured by optical density at 600 nm in x11 diluted samples. […] Rows of 30 ml tubes containing 10 ml RTD tea, pH 3.4, were equilibrated at the required temperature for 7 minutes in a water bath, before inoculation with 10^4 cells/ml of the yeast Saccharomyces cerevisiae […]-1B. Tubes were held at temperature for 2 minutes before being cooled rapidly in cold water for 5 minutes. Tubes were then incubated for 14 days at 25° C. to allow surviving yeasts to grow out. At 14 days growth was measured by optical density at 600 nm in x11 diluted samples. […] Rows of 30 ml tubes containing 10 ml RTD tea, pH 3.4, were equilibrated at the required temperature for 7 minutes in a water bath, before inoculation with 10^4 cells/ml of the yeast Saccharomyces cerevisiae […]-1B. Tubes were held at temperature for 2 minutes before being cooled rapidly in cold water for 5 minutes. Tubes were then incubated for 14 days at 25° C. to allow surviving yeasts to grow out. At 14 days growth was measured by optical density at 600 nm in x11 diluted samples. […] Rows of 30 ml tubes containing 10 ml RTD tea, pH 3.4, were equilibrated at the required temperature for 7 minutes in a water bath, before inoculation with 10^4 cells/ml of the yeast Saccharomyces cerevisiae […]-1B. Tubes were held at temperature for 2 minutes before being cooled rapidly in cold water for 5 minutes. Tubes were then incubated for 14 days at 25° C. to allow surviving yeasts to grow out. At 14 days growth was measured by optical density at 600 nm in x11 diluted samples. […] Rows of 30 ml tubes containing 10 ml RTD tea, pH 3.4, were equilibrated at the required temperature for 7 minutes in a water bath, before inoculation with 10^4 cells/ml of the yeast Saccharomyces cerevisiae […]-1B. Tubes were held at temperature for 2 minutes before being cooled rapidly in cold water for 5 minutes. Tubes were then incubated for 14 days at 25° C. to allow surviving yeasts to grow out. At 14 days growth was measured by optical density at 600 nm in x11 diluted samples. […] Rows of 30 ml tubes containing 10 ml RTD tea, pH 3.4, were equilibrated at the required temperature for 7 minutes in a water bath, before inoculation with 10^4 cells/ml of the yeast Saccharomyces cerevisiae […]-1B. Tubes were held at temperature for 2 minutes before being cooled rapidly in cold water for 5 minutes. Tubes were then incubated for 14 days at 25° C. to allow surviving yeasts to grow out. At 14 days growth was measured by optical density at […] in x11 diluted samples."}}}
{"smiles": "CCCCCCCCCCCC(=O)O", "note": "[Lauric acid]", "values": [{"measurement": "fungicidal activity at 30° C.", "setting": "[1]; 30° C.", "result": "no fungicidal activity"}, {"measurement": "fungicidal activity when heated to 50° C.", "setting": "[1]; 50° C.", "result": "significant fungicidal activity"}, {"measurement": "Importance", "setting": "[1]; rating as pasteurisation adjunct", "result": "High (High effects compounds, most preferred, generally showed at least a 5 fold decrease in MIC, minimum inhibitory concentration at 50 °C compared with 30° C.)"}, {"measurement": "effect of heat+pasteurisation adjunct on bacteria", "setting": "[2]; Ready to Drink tea or synthetic soft drink pH 3.4, 2 minutes at temperature", "result": "remarkable combined synergistic effect"}, {"measurement": "effect of pasteurisation adjunct at low temperature on growth", "setting": "[2]; Ready to Drink tea or synthetic soft drink pH 3.4, low temperature", "result": "little effect"}, {"measurement": "effect of heat+pasteurisation adjunct on yeast growth", "setting": "[3]; Ready to Drink tea 0.14% tea pH 3.4, held at temperature 2 minutes", "result": "remarkable combined synergistic effect"}, {"measurement": "effect of pasteurisation adjunct at low temperature on yeast growth", "setting": "[3]; Ready to Drink tea 0.14% tea pH 3.4, low temperature", "result": "little effect"}]}
